The source of these data is patent US9452225B2, “GLP-1 prodrugs” (Novo Nordisk A/S, priority 2012, dated 2016).

Series [1] is described as follows: Prodrug half-life in vitro, buffer method. The format is physicochemical. The note with it: 25 mM phosphate buffer pH 7.4, 37° C., 1.0 mg/mL; UPLC_A, or UPLC_B for compounds marked *; read-out: T½ in buffer (converted). The method, boiled down:
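Prodrug incubated at 1.0 mg/mL in 25 mM phosphate buffer (ionic strength 154 mM, pH 7.4) at 37° C, sampled over time. Prodrug and released parent quantified by UPLC peak areas; T½ derived as ln(2)/slope of linear fit of ln(% prodrug) versus time.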

Series [2] in a line: Prodrug half-life in vitro, plasma method (minipig heparin plasma). The format is in vitro ADME. The note with it: minipig heparin plasma 800 μL + 200 μL 200 mM phosphate pH 7.4, 37° C.; UPLC_A, or UPLC_B for compounds marked *; read-out: T½ in plasma (converted). As for the experimental part:
The purpose of this example is to test the in vitro half-lives (T½) of the GLP-1 prodrugs of the invention, in comparison to conceptually different prodrugs. In what follows two in vitro methods are described, viz. a method conducted in buffer, and a method conducted in plasma.
The half life of the prodrug (T½) was calculated from the slope of a linear fit to the curve of ln(% prodrug (Y)) as a function of time (t), as follows: Y=÷αt+k Math. 1 T½=ln(2)/α Math. 2 Plasma Method Buffer: 200 mM Phosphate, pH 7.4 at 37° C.
NaH2PO4.2H2O (15.61 g, 100 mmol) was dissolved in milliQ water (approximately 450 mL) and adjusted to pH=7.44 at approximately 20° C. with concentrated NaOH (aq) and 1 M NaOH (aq). Water was added to 500.00 mL.
Serum: Minipig Serum, Heparin-Plasma
Fresh blood was tapped from minipig into 9 mL LH lithium heparin Vacuette tubes from Greiner bio-one (catalogue number 455084). After cooling on ice it was centrifuged (10 min, 4° C., 3000 rpm/1942G) and the supernatant isolated and kept at −18° C. before use.
100 nmol of the compound to be tested was dissolved in 200 μL buffer, added to 800 μL plasma (centrifuged), and incubated at 37° C. Samples (50 μL) were drawn at appropriate intervals into 150 μL absolute EtOH. After a short stirring the sample was centrifuged and the supernatant transferred to the UPLC vial (10 μL injection).
The % parent drug compared to prodrug formed as a function of time was evaluated by UPLC, and the half-life calculated, both in the same way as described above under the Buffer method.

A short description of series [3]: Pharmacokinetic study in minipigs after i.v. administration. The series is classed as in vivo, Göttingen minipigs. The note with it: iv, minipig. As for the experimental part: The purpose of this study is to determine the pharmacokinetic (PK) profile in vivo of a prodrug of the invention (Example 4) and the corresponding parent drug (Example B2.2) after i.v. administration to minipigs, e.g. the prolongation of their time in the body and thereby their time of action. This is done in a PK study, where the terminal half-life of the compound in question is determined. By terminal half-life is generally meant the period of time it takes to halve a certain plasma concentration, measured after the initial distribution phase.
Threefemale Göttingen minipigs, obtained from Ellegaard Göttingen Minipigs (Dalmose, Denmark) approximately 6-8 months of age and weighing approximately 16-21 kg (prodrug pig 16.8 kg, drug pigs 21.3 and 21.1 kg), were used in the studies. The minipigs were housed individually and fed restrictedly once daily with SDS minipig diet (Special Diets Services, Essex, UK). […]
The prodrug of Example 4 and the corresponding drug of Example B2.2 were dissolved in 50 mM sodium phosphate, 145 mM sodium chloride, 0.05% polysorbate 80, pH 7.4 to a suitable concentration (for example, 169.6 nmol/ml for the prodrug). […] Individual plasma concentration-time profiles were analyzed by a non-compartmental model in WinNonlin v. […] Also, the resulting terminal half-lives (harmonic mean/h) were determined, if possible. […]

Another series deals with T1, human GLP-1 receptor (Homo sapiens, UniProt P43220).
T1 construct: expressed in transfected cells; host or cells: BHK cells, clone FCW467-12A (parent line BHKTS13), membranes
The experiment in a line: In vitro potency, AlphaScreen cAMP assay on membranes. The series is classed as biochemical. To be noted: cAMP formation, membranes of BHK467-12A cells. As for the experimental part: The purpose of this example is to test the activity, or potency, in vitro of, for example, the GLP-1 parent drugs of the prodrugs of the invention.
Purified plasma membranes from a stable transfected cell line, BHK467-12A (tk-ts13), expressing the human GLP-1 receptor were stimulated with the GLP-1 drug in question, and the potency of cAMP production was measured using the AlphaScreen™ cAMP Assay Kit from Perkin Elmer Life Sciences. The basic principle of The AlphaScreen Assay is a competition between endogenous cAMP and exogenously added biotin-cAMP. The capture of cAMP is achieved by using a specific antibody conjugated to acceptor beads.
A stable transfected cell line and a high expressing clone were selected for screening. The cells were grown at 5% CO2 in DMEM, 10% FCS, 1% Pen/Strep (Penicillin/Streptomycin) and preferably 0.5 (alternatively 1.0 mg/ml) of the selection marker G418.
Cells at approximate 80% confluence were washed twice with PBS and harvested with Versene (aqueous solution of the tetrasodium salt of ethylenediaminetetraacetic acid), centrifuged 5 min at 1000 rpm and the supernatant removed. The additional steps were all made on ice. The cell pellet was homogenised by the Ultrathurax for 20-30 s in 10 ml of Buffer 1 (20 mM Na-HEPES, 10 mM EDTA, pH=7.4), centrifuged 15 min at 20,000 rpm and the pellet resuspended in 10 ml of Buffer 2 (20 mM Na-HEPES, 0.1 mM EDTA, pH=7.4). The suspension was homogenised for 20-30 s and centrifuged 15 min at 20,000 rpm. Suspension in Buffer 2, homogenisation and centrifugation was repeated once and the membranes were resuspended in Buffer 2. The protein concentration was determined and the membranes stored at −80° C. until use.
The assay was performed in flat-bottom 96-well plates (Costar cat. no: 3693). The final volume per well was 50 μl.
AlphaScreen cAMP Assay Kit from Perkin Elmer Life Sciences (cat. No: 6760625M); containing Anti-cAMP Acceptor beads (10 U/μl), Streptavidin Donor beads (10 U/μl) and Biotinylated-cAMP (133 U/μl). […]
On the technique in general: Alpha assays give light when donor and acceptor beads are brought close together.

T1 sequence (P43220 24-463): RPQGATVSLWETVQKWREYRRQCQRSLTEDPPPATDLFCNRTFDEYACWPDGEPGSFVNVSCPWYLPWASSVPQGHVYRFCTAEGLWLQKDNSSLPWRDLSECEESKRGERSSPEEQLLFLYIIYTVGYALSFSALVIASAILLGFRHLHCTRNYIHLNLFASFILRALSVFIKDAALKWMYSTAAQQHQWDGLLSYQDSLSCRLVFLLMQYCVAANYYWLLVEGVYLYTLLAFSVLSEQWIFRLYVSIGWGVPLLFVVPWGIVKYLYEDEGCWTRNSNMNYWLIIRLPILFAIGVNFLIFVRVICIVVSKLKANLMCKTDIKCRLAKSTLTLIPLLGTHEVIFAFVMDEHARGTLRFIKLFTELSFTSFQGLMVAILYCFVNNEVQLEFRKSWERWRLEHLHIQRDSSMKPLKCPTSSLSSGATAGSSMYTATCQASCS

As to `CC[C@H](C)[C@H](NC)C(=O)N[C@H](C(=O)O[C@@H](Cc1c[nH]cn1)C(=O)N[C@@H](C)C(=O)N[C@@H](CCC(=O)O)C(=O)NCC(=O)N[C@H](C(=O)N[C@@H](Cc1ccccc1)C(=O)N[C@H](C(=O)N[C@@H](CO)C(=O)N[C@@H](CC(=O)O)C(=O)N[C@H](C(=O)N[C@@H](CO)C(=O)N[C@@H](CO)C(=O)N[C@@H](Cc1ccc(O)cc1)C(=O)N[C@@H](CC(C)C)C(=O)N[C@@H](CCC(=O)O)C(=O)NCC(=O)N[C@@H](CCC(N)=O)C(=O)N[C@@H](C)C(=O)N[C@@H](C)C(=O)N[C@@H](CCCCNC(=O)COCCOCCNC(=O)COCCOCCNC(=O)CC[C@H](NC(=O)CCCCCCCCCOc1ccc(C(=O)O)cc1)C(=O)O)C(=O)N[C@@H](CCC(=O)O)C(=O)N[C@@H](Cc1ccccc1)C(=O)N[C@H](C(=O)N[C@@H](C)C(=O)N[C@@H](Cc1c[nH]c2ccccc12)C(=O)N[C@@H](CC(C)C)C(=O)N[C@H](C(=O)N[C@@H](CCCNC(=N)N)C(=O)NCC(=O)N[C@@H](CCCNC(=N)N)C(=O)N[C@@H](CCCCNC(=O)COCCOCCNC(=O)COCCOCCNC(=O)CC[C@H](NC(=O)CCCCCCCCCOc1ccc(C(=O)O)cc1)C(=O)O)C(=O)O)C(C)C)[C@@H](C)CC)C(C)C)[C@@H](C)O)[C@@H](C)O)C(C)C` [Example 4], the half-life in series [1] was 58.9 h; in series [2], 27.9 h; in series [3] (in vivo, prodrug given i.v. 8 nmol/kg, half-life of the released parent drug, estimated from the bell-shaped curve, read-out: apparent terminal half-life of corresponding drug (estimated) (converted)) it was 68 h.
Broadly, the EC50 is the concentration at which the effect is half-maximal. Regarding `CC[C@H](C)[C@H](NC(=O)[C@H](Cc1ccccc1)NC(=O)[C@H](CCC(=O)O)NC(=O)[C@H](CCCCNC(=O)COCCOCCNC(=O)COCCOCCNC(=O)CC[C@H](NC(=O)CCCCCCCCCOc1ccc(C(=O)O)cc1)C(=O)O)NC(=O)[C@H](C)NC(=O)[C@H](C)NC(=O)[C@H](CCC(N)=O)NC(=O)CNC(=O)[C@H](CCC(=O)O)NC(=O)[C@H](CC(C)C)NC(=O)[C@H](Cc1ccc(O)cc1)NC(=O)[C@H](CO)NC(=O)[C@H](CO)NC(=O)[C@@H](NC(=O)[C@H](CC(=O)O)NC(=O)[C@H](CO)NC(=O)[C@@H](NC(=O)[C@H](Cc1ccccc1)NC(=O)[C@@H](NC(=O)CNC(=O)[C@H](CCC(=O)O)NC(=O)[C@H](C)NC(=O)[C@@H](O)Cc1c[nH]cn1)[C@@H](C)O)[C@@H](C)O)C(C)C)C(=O)N[C@@H](C)C(=O)N[C@@H](Cc1c[nH]c2ccccc12)C(=O)N[C@@H](CC(C)C)C(=O)N[C@H](C(=O)N[C@@H](CCCNC(=N)N)C(=O)NCC(=O)N[C@@H](CCCNC(=N)N)C(=O)N[C@@H](CCCCNC(=O)COCCOCCNC(=O)COCCOCCNC(=O)CC[C@H](NC(=O)CCCCCCCCCOc1ccc(C(=O)O)cc1)C(=O)O)C(=O)O)C(C)C` [Example B2.2], the EC50 on human GLP-1 receptor was 460 pM. In series [3] (female, Göttingen, plasma, parent drug given i.v. 3 nmol/kg, read-out: Terminal half-life (harmonic mean/h) (converted)), the half-life is 37 h.
